These results are taken from PMC7076525, “Pharmacokinetics and Intestinal Metabolism of Compound K in Rats and Mice” (Pharmaceutics, 2020).

Like-named read-outs stand apart in the source and are kept apart here.

The nature of data set [1]: Pharmacokinetics, biliary excretion and metabolism of compound K in bile cannulated and non-bile cannulated rats. The data set is classed as in vivo, SD rats. As to conditions: for AUC(0-inf) / half-life / AUC(0-t) / C0: SD, rat, plasma, iv, 2 mg/kg; for AUC(0-t): read-out: AUC12 h; for C0: read-out: C0 (initial plasma concentration). On the procedure:
SD rats were randomly divided into two groups: the non-bile cannulated control group and the bile cannulated group. For the bile cannulated rats, the femoral artery, femoral vein, and bile duct were cannulated with polyethylene tubes (PE-50 and PE-10; Jungdo, Seoul, Korea) under light anesthesia with isoflurane. For the control group, the femoral artery and femoral vein were cannulated with PE-50. Compound K was injected intravenously via the femoral vein at 2 mg/kg. Blood samples (approximately 200 µL) were collected from the femoral artery at 0, 0.25, 0.5, 1, 2, 4, and 8 h after the compound K injection. After each blood sampling, normal saline was injected into the femoral vein to compensate for blood loss. Bile samples were collected every 2 h for a total of 12 h. The blood samples were centrifuged at 16,000× g for 10 min, and 50 μL aliquots of plasma and 50 μL aliquots of bile were stored at −80 °C until the compound K analysis. In the non-bile cannulated rats, the complete contents of the entire gastrointestinal tract were collected using a […] filled with 30 mL pre-warmed saline. The contents were homogenized with tissue homogenizer, and 50 μL aliquots of intestinal fecal homogenates were stored at −80 °C until the analysis. The 50 μL samples of plasma, urine, 10% fecal homogenates, bile, and intestinal fecal homogenates were each mixed with 60 μL of IS (20 ng/mL 13C-caffeine in water) and 600 μL of methyl tert-butyl ether (MTBE). The mixtures were vortexed vigorously for 10 min and centrifuged at 16,000× g for 5 min. After centrifugation, the samples were frozen at −80 °C for 2 h. […] The residue was reconfigured with 200 μL of 80% methanol consisting of 0.1% formic acid, and a 10 μL aliquot was injected into the liquid chromatography–tandem mass spectrometry (LC–MS/MS) system. Compound K and PPD concentrations were analyzed using a modified LC-MS/MS method of Jin et al. with an Agilent 6430 triple quadrupole LC-MS/MS system (Agilent, Wilmington, DE, USA). […] The mobile phase consisted of 0.1% formic acid in water (8%) and 0.1% formic acid in methanol (92%) at a flow rate of 0.15 mL/min. Pharmacokinetic parameters were estimated using non-compartmental methods (WinNonlin version 2.0, Pharsight Co., Certara, NJ, USA).

The subject of the next data set is Oatp transporters. Kind of data set: Inhibition of hepatic uptake of compound K by rifampin pre-treatment in SD rats. The class given is in vivo. As to conditions: rifampin 20 mg/kg PO 1 h before compound K IV 2 mg/kg, 0.5 and 2 h. The method, then: To investigate the effect of rifampin (a representative inhibitor of the organic anion-transporting polypeptide (Oatp) transporters) on the hepatic distribution of compound K, ICR mice and SD rats were randomly divided into either control or rifampin groups. The rifampin group was orally administered with rifampin solution (20 mg/kg, dissolved in DMSO: saline = 2:8, v/v) and the control group received only the vehicle via oral gavage. One hour after rifampin treatment, mice and rats received compound K intravenously at a single dose of 2 mg/kg via tail vein. The animals were euthanized and blood samples (approximately 200 µL) were collected from the abdominal artery at 0.5 and 2 h after intravenous injection. The liver tissues were immediately excised, gently washed with ice-cold saline, and homogenized with 4 volumes of saline. Aliquots (50 μL) of plasma and 20% liver homogenates were stored at −80 °C until the analysis of compound K.
The plasma samples and 20% tissue homogenates samples were each mixed with 60 μL of IS (20 ng/mL 13C-caffeine in water) and 600 μL of MTBE. The mixtures were vortexed vigorously for 10 min and centrifuged at 16,000× g for 5 min. After centrifugation, the samples were frozen at −80 °C for 2 h. The upper layer was transferred to a clean tube and evaporated to dryness under a nitrogen stream. […]

The conditions of data set [2]: cited from earlier work.
Setting [3] is: bile cannulated rat, compound K IV 2 mg/kg.
Where [4] appears, read: non-bile cannulated rat, compound K IV 2 mg/kg.

On to `CC(C)=CCCC(C)(OC1OC(CO)C(O)C(O)C1O)C1CCC2(C)C1C(O)CC1C3(C)CCC(O)C(C)(C)C3CCC12C` [compound K, 20-O-beta-(D-Glucopyranosyl)-20(S)-protopanaxadiol], for which, in data set [1] (setting [3]), the area under the curve AUC(0-inf) came out at 235 ± 126 ng·h/mL, the half-life was 0.78 ± 0.11 h, the AUC(0-t) came to 211 ± 87.3 ng·h/mL and the C0 came to 436 ± 326 ng/mL. Moreover, in data set [1] (setting [4]), the AUC(0-inf) was 517 ± 249 ng·h/mL, the half-life is 2.4 ± 0.61 h, the AUC(0-t) was 496 ± 253 ng·h/mL and the C0 worked out at 451 ± 192 ng/mL. Besides, the “Bile12 h (biliary excretion)” value in data set [1] (bile cannulated rat, compound K IV 2 mg/kg, bile collected for 12 h) is 39.1 ± 5.7 % of dose. Also, the elimination constant in data set [1] (bile-cannulated rats, one-compartment model, estimated using 5 points, r^2 0.92) is 0.90 h⁻¹. The elimination constant in data set [1] (non-bile cannulated (control) rats, estimated using 3 points, r^2 0.94) is 0.29 h⁻¹. In the data set with Oatp transporters, the “liver to plasma concentration ratios with rifampin pre-treatment versus control” value was “decreased” and the “plasma concentration of compound K with rifampin pre-treatment versus control” value was “increased”. Moreover, the Cmax in data set [2] (12 Japanese subjects, single oral fermented ginseng tablet (274.4 mg total; 2.2 mg as compound K)) is recorded as 41.5 ng/mL. Further, in data set [2] (subjects given non-fermented Korean red ginseng extract (3 g total; 0 mg as compound K)), the Cmax was 3.2 to 24.8 ng/mL. Further, the “mean Cmax” value in data set [2] (subjects given oral fermented Korean red ginseng (3 g total; 10.9 mg as compound K)) is reported as 254.5 ng/mL.

For orientation: AUC(0-inf) means total exposure, with the tail of the curve extrapolated. A low value points to less exposure. Usually half-life stands for the time in which the quantity being followed falls by half. Lower therefore signals fast loss. What is called Cmax is the highest concentration seen after dosing.
